Like-named read-outs stand apart in the source and are kept apart here.
What was measured:
[1] = pH 8; cited from earlier work
[2] = humans; cited from earlier work
[3] = statement in words, cited from earlier work
[4] = cited from earlier work
Aβ hexamers in plasma = experiment: Plasma (blood) Aβ levels in mice after intraperitoneal STI-571, Western blot/ELISA; type: in vivo, mouse
Description: […]. Wild-type C57Bl/6 and DBA/2J male mice (age 8-12 weeks) were administered drug or vehicle twice daily for 7 days by intraperitoneal injection. […]. […] See, for example, Gleevec Prescribing Information 2003 revision T2003-09; Printed in U.S.A. 89019001 (Novartis), incorporated herein by reference.
Animals were sacrificed 12 hr after the last injection. Individual mice were anesthetized with isoflurane and blood samples (100-300ul) taken by cardiac puncture with heparinized syringes. Samples were placed on ice for 30 minutes in the presence of EDTA and then centrifuged for 20 minutes at 16,000×g at 4° C. The plasma fraction was removed and stored at −80° C. Brains were removed and frozen rapidly on dry ice and stored at −80° C.
Detection of mouse Aβ1-40 in blood and brain samples was performed by using a commercially available immunoassay kit (Biosource mouse Aβ1-40, Catalog No. KMB3481, Invitrogen, Carlsbad, Calif.) or by Western blot. Mouse brain samples were prepared by homogenizing brain tissue in a polytron in the presence of 5M guanidine HCl and 50 mM Tris HCl, pH 8.0 as described in the assay protocol. […]
Blood samples were diluted 1:5 in standard diluent buffer. Samples were assayed in duplicate and OD450 measured on a Tecan infinite 2000 plate reader. […]

[5] = cited from earlier work; remark: listed apart in the source
[6] = test system: primary neurons prepared from cerebral cortex; conditions: embryonic day 18 rats; cited from earlier work
Notch signaling = conditions: while reducing Aβ production; cited from earlier work
Aβ accumulation in brain = conditions: intrathecal delivery by osmotic minipumps, guinea pigs; cited from earlier work

## COc1cc([S+](C)[O-])ccc1-c1nc2ncccc2[nH]1 (centres unmarked) [ARL115, sulmazole]
[1]
  log P: 1.17
[2]
  CNS side effects: lack the CNS side effects

## Cc1ccc(NC(=O)c2ccc(CN3CCN(C)CC3)cc2)cc1Nc1nccc(-c2cccnc2)n1 [STI-571]
[3]
  penetration of the blood-brain barrier: poor penetration of the blood-brain barrier
[3]; listed as GLEEVEC/STI-571
  penetration of the blood-brain barrier: poor penetration of the blood-brain barrier
[3]; listed as imatinib
  penetration of the blood-brain barrier: does not substantially penetrate the blood brain barrier
[4]; human, in vivo, po
  absorption after oral administration: rapidly absorbed
[4]; human, in vivo
  mean AUC versus dose: did not increase proportionally with increasing dose
[4]; pediatric patients, oral
  Cmax (time): 2 to 4 h
Aβ hexamers in plasma; 20 mg/kg IP twice daily for 7 days, B6 mice
  reduction of plasma levels of Aβ: approximately 50%
Aβ hexamers in plasma; highest dose (100 mg/kg) IP twice daily for 7 days, young D2 mice
  reduction of circulating Aβ: approximately 75%

## Cc1ccc(NC(=O)c2ccc(CN3CCNCC3)cc2)cc1Nc1nccc(-c2cccnc2)n1 [N-desmethyl derivative]
[5]; humans
  plasma AUC of metabolite relative to the AUC for imatinib: about 15%
[5]; oral administration in healthy volunteers
  elimination half-life: ~40 h

## COc1ccc(-c2nc3ncccc3[nH]2)c(OC)c1.Cl [ARL-57]
[1]
  log P: 2.59
[2]
  CNS side effects: spectacular bright color vision

## 6-(2,6-dichlorophenyl)-8-methyl-2-(methylsulfanylphenyl-amino)-8H-pyrido[2,3-d]pyrimidin-7-one [inhibitor 2]
[6]
  production of Aβ: reduce production of Aβ
Notch signaling
  effect on Notch signaling: without affecting Notch signaling
Aβ accumulation in brain
  Aβ accumulation in brain: decrease in Aβ accumulation in brain

— patent US20100120787A1, “MODIFICATION OF AMYLOID-BETA LOAD IN NON-BRAIN TISSUE” (MODGENE, LLC, priority 2008, published 2010)
